Measurements from ChEMBL document CHEMBL5385904, “Design, synthesis and biological evaluation of seco-DSP/DCK derivatives reversing P-glycoprotein-mediated paclitaxel resistance in A2780/T cells” (Eur J Med Chem, 2023).

Experiments:
A2780/Taxol [1] = experiment: Cytotoxicity against human A2780/Taxol cells assessed survival rate at 10 uM incubated for 48 hrs by MTT assay; type: functional
A2780/Taxol [2] = experiment: Reversal of multi-drug resistance in human A2780/Taxol cells incubated for 48 hrs by MTT assay; type: functional, cell-based
A2780/Taxol [3] = experiment: Reversal of multidrug resistance in human A2780/Taxol Cells assessed as reversal fold of paclitaxel IC50 at 10 uM incubated for 48 hrs by MTT assay; type: functional

Structure (SMILES) | Cell survival rate (A2780/Taxol [1]) | IC50 (A2780/Taxol [2]) | fold change (FC) (A2780/Taxol [3])
Cc1c(Cc2ccccc2)c(=O)oc2c(COC(=O)/C=C/c3ccccc3)c(OC(C)C)ccc12 | 95% | 276 nM | 16
CCOc1ccc2c(C)c(Cc3ccc(F)cc3)c(=O)oc2c1COC(=O)/C=C/c1ccc(OC)cc1 | 92% | 340 nM | 13
COc1ccc(/C=C/C(=O)OCc2c(OC(C)C)ccc3c(C)c(Cc4ccccc4)c(=O)oc23)cc1 | 86% | 233 nM | 19
COc1ccc(Cc2c(C)c3ccc(OC(C)C)c(COC(=O)Cc4cc(OC)c(OC)c(OC)c4)c3oc2=O)cc1 | 94% | 94 nM | 47
COc1cccc(Cc2c(C)c3ccc(OC(C)C)c(COC(=O)Cc4cc(OC)c(OC)c(OC)c4)c3oc2=O)c1 | 93% | 73 nM | 60
COc1ccc(/C=C/C(=O)OCc2c(OC(C)C)ccc3c(C)c(Cc4ccc(C(F)(F)F)cc4)c(=O)oc23)cc1 | 94% | 631 nM | 7
CC(=O)O[C@H]1C(=O)[C@@]2(C)[C@H]([C@H](OC(=O)c3ccccc3)[C@]3(O)C[C@H](OC(=O)[C@H](O)[C@@H](NC(=O)c4ccccc4)c4ccccc4)C(C)=C1C3(C)C)[C@]1(OC(C)=O)CO[C@@H]1C[C@@H]2O [PACLITAXEL] |  | 4420 nM | 1
COc1ccc(/C=C/C(=O)OCc2c(OC(C)C)ccc3c(C)c(Cc4ccc(F)cc4)c(=O)oc23)cc1 | 89% | 491 nM | 9
COc1cc(NC(=O)c2c(OC(C)C)ccc3c(C)cc(=O)oc23)cc(OC)c1OC | 88% | 1590 nM | 2.8
COc1ccc(/C=C/C(=O)OCc2c(OC(C)C)ccc3c(C)c(Cc4ccc(OC)cc4)c(=O)oc23)cc1 | 83% | 491 nM | 9
CCc1cc(=O)c2ccc(OC(C)C)c(CNC(=O)Cc3cc(OC)c(OC)c(OC)c3)c2o1 | 97% | 20 nM | 224
Cc1c(Cc2ccccc2)c(=O)oc2c(COC(=O)c3ccc(F)cc3)c(OC(C)C)ccc12 | 82% | 86 nM | 51
COc1cc(CC(=O)OCc2c(OC(C)C)ccc3c(C)c(C(C)C)c(=O)oc23)cc(OC)c1OC | 98% | 36 nM | 122
COc1cc(CC(=O)OCc2c(OC(C)C)ccc3c(C)c(Cc4cccc(F)c4)c(=O)oc23)cc(OC)c1OC | 94% | 86 nM | 51
Cc1c(Cc2ccc(C#N)cc2)c(=O)oc2c(COC(=O)/C=C/c3ccccc3)c(OC(C)C)ccc12 | 91% | 210 nM | 21
COc1cc(CC(=O)OCc2c(OC(C)C)ccc3c(C)c(-c4ccccc4)c(=O)oc23)cc(OC)c1OC | 97% | 43 nM | 101
CCOc1ccc2c(C)c(Cc3ccccc3)c(=O)oc2c1COC(=O)/C=C/c1ccc(OC)cc1 | 74% | 276 nM | 16
CCOc1ccc2c(C)c(Cc3ccc(OC)cc3)c(=O)oc2c1COC(=O)/C=C/c1ccc(OC)cc1 | 90% | 491 nM | 9
COc1cc(CC(=O)OCc2c(OC(C)C)ccc3c(C)c(Cc4ccccc4F)c(=O)oc23)cc(OC)c1OC | 98% | 73 nM | 60
COc1cc(C(=O)OCc2c(OC(C)C)ccc3c(C)c(Cc4ccccc4)c(=O)oc23)cc(OC)c1OC | 91% | 85 nM | 52

Structure (SMILES) | Cell survival rate (A2780/Taxol [1]) | IC50 (A2780/Taxol [2]) | fold change (FC) (A2780/Taxol [3])
COc1ccc(Cc2c(C)c3ccc(OC(C)C)c(COC(=O)/C=C/c4ccccc4)c3oc2=O)cc1 | 94% | 3400 nM | 1.3
Cc1c(Cc2ccc(C(F)(F)F)cc2)c(=O)oc2c(COC(=O)/C=C/c3ccccc3)c(OC(C)C)ccc12 | 99% | 401 nM | 11
CCOc1ccc2c(=O)cc(CC)oc2c1COC(=O)/C=C/c1ccc(OC)cc1 | 52% |  | 
COc1cc(CC(=O)OCc2c(OC(C)C)ccc3c(C)c(C)c(=O)oc23)cc(OC)c1OC | 94% | 55 nM | 80
COc1cc(CC(=O)OCc2c(OC(C)C)ccc3c(C)c(Cc4ccc(C#N)cc4)c(=O)oc23)cc(OC)c1OC | 81% | 88 nM | 50
Cc1cc(=O)oc2c(C(=O)Nc3ccc(OC(F)(F)F)cc3)c(OC(C)C)ccc12 | 60% | 315 nM | 14
COc1cc(CC(=O)OCc2c(OC(C)C)ccc3c(C)cc(=O)oc23)cc(OC)c1OC | 94% | 107 nM | 41
Cc1c(Cc2ccccc2)c(=O)oc2c(COC(=O)Cc3ccc(F)cc3)c(OC(C)C)ccc12 | 95% | 67 nM | 66
CCc1cc(=O)c2ccc(OC(C)C)c(CNc3cc(OC)c(OC)c(OC)c3)c2o1 | 86% | 143 nM | 31
CCc1cc(=O)c2ccc(OC(C)C)c(CNC(=O)/C=C/c3ccccc3)c2o1 | 74% | 192 nM | 23
CCc1c(C)c2ccc(OC(C)C)c(COC(=O)Cc3cc(OC)c(OC)c(OC)c3)c2oc1=O | 93% | 69 nM | 64
COc1cc(C(=O)OCc2c(OC(C)C)ccc3c(C)c(CCc4ccccc4)c(=O)oc23)cc(OC)c1OC | 91% | 31 nM | 140
Cc1c(Cc2ccccc2)c(=O)oc2c(COC(=O)Cc3ccccc3)c(OC(C)C)ccc12 | 83% | 76 nM | 58
Cc1cc(=O)oc2c(C(=O)Nc3ccccc3)c(OC(C)C)ccc12 | 92% | 2760 nM | 1.6
Cc1cc(=O)oc2c(CNC(=O)/C=C/c3ccccc3)c(OC(C)C)ccc12 | 87% | 294 nM | 15
COc1ccccc1Cc1c(C)c2ccc(OC(C)C)c(COC(=O)Cc3cc(OC)c(OC)c(OC)c3)c2oc1=O | 92% | 69 nM | 64
COc1cc(CC(=O)OCc2c(OC(C)C)ccc3c(C)c(Cc4ccc(F)cc4)c(=O)oc23)cc(OC)c1OC | 92% | 21 nM | 206
COc1cc(CCC(=O)OCc2c(OC(C)C)ccc3c(C)c(Cc4ccccc4)c(=O)oc23)cc(OC)c1OC | 90% | 53 nM | 82
COc1cc(CC(=O)NCc2c(OC(C)C)ccc3c(C)cc(=O)oc23)cc(OC)c1OC | 90% | 1580 nM | 2.8
COc1cc(CC(=O)OCc2c(OC(C)C)ccc3c(C)c(Cc4ccc(C(F)(F)F)cc4)c(=O)oc23)cc(OC)c1OC | 81% | 94 nM | 47
